Assay results: patent US12077503B2, “Substituted cyclic amides and their use as herbicides” (FMC CORPORATION, priority 2015, dated 2024)

Experiments:
Type in all cases: in vivo
corn (Zea mays) = assay: Test A postemergence; details: Zea mays, post-emergence, 240 h, Postemergence, read-out: Corn plant response rating (0 to 100 scale); for plant injury at 125 g/ha: 125 g ai/ha, visual rating about 10 d after treatment; for plant injury at 31 g/ha: 31 g ai/ha, 0 is no effect, 100 is complete control
Procedure, shortened: (§1)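 Preemergence soil spray on seeded pots or post-emergence spray on 1–2 leaf plants, in loam–sand blend. Greenhouse ~10 d. Visual rating 0–100 against untreated plants.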

[1] = test system: Galium (catchweed bedstraw, Galium aparine); assay: Test A postemergence; details: Galium, post-emergence, 240 h, Postemergence, read-out: Galium plant response rating (0 to 100 scale); for pest or weed control at 125 g/ha: 125 g ai/ha, visual rating about 10 d after treatment; for pest or weed control at 31 g/ha: 31 g ai/ha, 0 is no effect, 100 is complete control
Procedure, shortened: as §1

[2] = test system: wheat (Triticum aestivum); assay: Test A postemergence; details: Triticum aestivum, post-emergence, 240 h, Postemergence, read-out: Wheat plant response rating (0 to 100 scale); for plant injury at 125 g/ha: 125 g ai/ha, visual rating about 10 d after treatment; for plant injury at 31 g/ha: 31 g ai/ha, 0 is no effect, 100 is complete control
Procedure, shortened: as §1

[3] = test system: pigweed (Amaranthus retroflexus); assay: Test A postemergence; details: Amaranthus retroflexus, post-emergence, 240 h, Postemergence, read-out: Pigweed plant response rating (0 to 100 scale); for pest or weed control at 125 g/ha: 125 g ai/ha, visual rating about 10 d after treatment; for pest or weed control at 31 g/ha: 31 g ai/ha, 0 is no effect, 100 is complete control
Procedure, shortened: as §1

[4] = test system: giant foxtail (Setaria faberii); assay: Test A postemergence; details: Setaria faberi, post-emergence, 240 h, Postemergence, read-out: Foxtail, Giant plant response rating (0 to 100 scale); for pest or weed control at 125 g/ha: 125 g ai/ha, visual rating about 10 d after treatment; for pest or weed control at 31 g/ha: 31 g ai/ha, 0 is no effect, 100 is complete control
Procedure, shortened: as §1

[5] = test system: ragweed (common ragweed, Ambrosia elatior); assay: Test A postemergence; details: Ambrosia artemisiifolia, post-emergence, 240 h, Postemergence, read-out: Ragweed plant response rating (0 to 100 scale); for pest or weed control at 125 g/ha: 125 g ai/ha, visual rating about 10 d after treatment; for pest or weed control at 31 g/ha: 31 g ai/ha, 0 is no effect, 100 is complete control
Procedure, shortened: as §1

[6] = test system: barnyardgrass (Echinochloa crus-galli); assay: Test A postemergence; details: Echinochloa crus-galli, post-emergence, 240 h, Postemergence; for pest or weed control at 125 g/ha: 125 g ai/ha, visual rating about 10 d after treatment, read-out: Barnyardgrass plant response rating (0 to 100 scale, 0 no effect, 100 complete control); for pest or weed control at 31 g/ha: 31 g ai/ha, 0 is no effect, 100 is complete control, read-out: Barnyardgrass plant response rating (0 to 100 scale)
Procedure, shortened: as §1

Kochia (Kochia scoparia) [7] = assay: Test A postemergence; details: Bassia scoparia, post-emergence, 240 h, Postemergence, read-out: Kochia plant response rating (0 to 100 scale); for pest or weed control at 125 g/ha: 125 g ai/ha, visual rating about 10 d after treatment; for pest or weed control at 31 g/ha: 31 g ai/ha, 0 is no effect, 100 is complete control
Procedure, shortened: as §1

[8] = test system: ryegrass, Italian (Italian ryegrass, Lolium multiflorum); assay: Test A postemergence; details: Lolium multiflorum, post-emergence, 240 h, Postemergence, read-out: Ryegrass, Italian plant response rating (0 to 100 scale); for pest or weed control at 125 g/ha: 125 g ai/ha, visual rating about 10 d after treatment; for pest or weed control at 31 g/ha: 31 g ai/ha, 0 is no effect, 100 is complete control
Procedure, shortened: as §1

[9] = test system: blackgrass (Alopecurus myosuroides); assay: Test A postemergence; details: Alopecurus myosuroides, post-emergence, 240 h, Postemergence, read-out: Blackgrass plant response rating (0 to 100 scale); for pest or weed control at 125 g/ha: 125 g ai/ha, visual rating about 10 d after treatment; for pest or weed control at 31 g/ha: 31 g ai/ha, 0 is no effect, 100 is complete control
Procedure, shortened: as §1

[10] = test system: pigweed (Amaranthus retroflexus); assay: Test A preemergence; details: Amaranthus retroflexus, pre-emergence, 240 h, 0 to 100 scale where 0 is no effect and 100 is complete control, read-out: Pigweed plant response rating; for pest or weed control at 31 g/ha: 31 g ai/ha, Preemergence; for pest or weed control at 125 g/ha: 125 g ai/ha, preemergence, visual injury rating, approximately 10 d
[11] = test system: giant foxtail (Setaria faberii); assay: Test A preemergence; details: Setaria faberi, pre-emergence, 240 h, 0 to 100 scale where 0 is no effect and 100 is complete control, read-out: Foxtail, Giant plant response rating; for pest or weed control at 31 g/ha: 31 g ai/ha, Preemergence; for pest or weed control at 125 g/ha: 125 g ai/ha, preemergence, visual injury rating, approximately 10 d
Procedure, shortened: as §1

[12] = test system: ragweed (common ragweed, Ambrosia elatior); assay: Test A preemergence; details: Ambrosia artemisiifolia, pre-emergence, 240 h, 0 to 100 scale where 0 is no effect and 100 is complete control, read-out: Ragweed plant response rating; for pest or weed control at 31 g/ha: 31 g ai/ha, Preemergence; for pest or weed control at 125 g/ha: 125 g ai/ha, preemergence, visual injury rating, approximately 10 d
Procedure, shortened: as §1

[13] = test system: barnyardgrass (Echinochloa crus-galli); assay: Test A preemergence; details: Echinochloa crus-galli, pre-emergence, 240 h, 0 to 100 scale where 0 is no effect and 100 is complete control, read-out: Barnyardgrass plant response rating; for pest or weed control at 31 g/ha: 31 g ai/ha, Preemergence; for pest or weed control at 125 g/ha: 125 g ai/ha, preemergence, visual injury rating, approximately 10 d
Procedure, shortened: as §1

Kochia (Kochia scoparia) [14] = assay: Test A preemergence; details: Bassia scoparia, pre-emergence, 240 h, 0 to 100 scale where 0 is no effect and 100 is complete control, read-out: Kochia plant response rating; for pest or weed control at 31 g/ha: 31 g ai/ha, Preemergence; for pest or weed control at 125 g/ha: 125 g ai/ha, preemergence, visual injury rating, approximately 10 d
Procedure, shortened: as §1

[15] = test system: ryegrass, Italian (Italian ryegrass, Lolium multiflorum); assay: Test A preemergence; details: Lolium multiflorum, pre-emergence, 240 h, 0 to 100 scale where 0 is no effect and 100 is complete control, read-out: Ryegrass, Italian plant response rating; for pest or weed control at 31 g/ha: 31 g ai/ha, Preemergence; for pest or weed control at 125 g/ha: 125 g ai/ha, preemergence, visual injury rating, approximately 10 d
Procedure, shortened: as §1

[16] = test system: sedge, umbrella (small-flower umbrella sedge, Cyperus difformis); assay: Test B flooded paddy test; details: Cyperus difformis, 250 g ai/ha, Flood; 0 to 100 scale where 0 is no effect and 100 is complete control; read-out: Sedge, Umbrella plant response rating
Procedure, shortened: (§2)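 Response scored visually against untreated controls, 0 = no effect and 100 = complete control, 13–15 d after treatment in the greenhouse. Compounds added to paddy water held 3 cm above soil surface. Treatment given at 2-leaf stage.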

[17] = test system: ducksalad (Heteranthera limosa); assay: Test B flooded paddy test; details: Heteranthera limosa, 250 g ai/ha, Flood; 0 to 100 scale where 0 is no effect and 100 is complete control; read-out: Ducksalad plant response rating
Procedure, shortened: as §2

rice (Oryra sativa) = assay: Test B flooded paddy test; details: Oryza sativa, 250 g ai/ha, Flood; 0 to 100 scale where 0 is no effect and 100 is complete control; read-out: Rice plant response rating
Procedure, shortened: as §2

[18] = test system: barnyardgrass (Echinochloa crus-galli); assay: Test B flooded paddy test; details: Echinochloa crus-galli, 250 g ai/ha, Flood; 0 to 100 scale where 0 is no effect and 100 is complete control; read-out: Barnyardgrass plant response rating
Procedure, shortened: as §2

Structure (SMILES) | plant injury at 125 g/ha (corn (Zea mays)) | plant injury at 31 g/ha (corn (Zea mays)) | pest or weed control at 125 g/ha [1] | pest or weed control at 31 g/ha [1] | plant injury at 125 g/ha [2] | plant injury at 31 g/ha [2] | pest or weed control at 125 g/ha [3] | pest or weed control at 31 g/ha [3] | pest or weed control at 125 g/ha [4] | pest or weed control at 31 g/ha [4] | pest or weed control at 125 g/ha [5] | pest or weed control at 31 g/ha [5] | pest or weed control at 125 g/ha [6] | pest or weed control at 31 g/ha [6] | pest or weed control at 125 g/ha (Kochia (Kochia scoparia) [7]) | pest or weed control at 31 g/ha (Kochia (Kochia scoparia) [7]) | pest or weed control at 125 g/ha [8] | pest or weed control at 31 g/ha [8] | pest or weed control at 125 g/ha [9] | pest or weed control at 31 g/ha [9] | also measured
O=C(Nc1cccc(F)c1F)C1C(=O)N(CC(F)F)CC1c1cccc(C(F)(F)F)c1 (stereo not drawn) [Compound 1294] | 0% | 0% | 0% | 0% | 0% | 0% | 0% | 0% | 20% | 0% | 0% | 0% | 20% | 0% | 0% | 0% | 0% | 0% | 0% | 0% | pest or weed control at 31 g/ha [10]: 0%; pest or weed control at 125 g/ha [10]: 0%; pest or weed control at 31 g/ha [11]: 0%; pest or weed control at 125 g/ha [11]: 30%; pest or weed control at 31 g/ha [12]: 0%; pest or weed control at 125 g/ha [12]: 0%; pest or weed control at 31 g/ha [13]: 0%; pest or weed control at 125 g/ha [13]: 50%; pest or weed control at 31 g/ha (Kochia (Kochia scoparia) [14]): 0%; pest or weed control at 125 g/ha (Kochia (Kochia scoparia) [14]): 0%; pest or weed control at 31 g/ha [15]: 0%; pest or weed control at 125 g/ha [15]: 0%; pest or weed control at 250 g/ha [16]: 0%; pest or weed control at 250 g/ha [17]: 0%; pest or weed control at 250 g/ha (rice (Oryra sativa)): 0%; pest or weed control at 250 g/ha [18]: 0%
O=C(Nc1ccccc1F)[C@H]1C(=O)N(CC(F)F)C[C@@H]1c1cccc(C(F)(F)F)c1 [Compound 1295] | 0% | 0% | 0% | 0% | 0% | 0% | 0% | 0% | 0% | 0% | 0% | 0% | 0% | 0% | 0% | 0% | 0% | 0% | 0% | 0% | pest or weed control at 31 g/ha [10]: 0%; pest or weed control at 125 g/ha [10]: 0%; pest or weed control at 31 g/ha [11]: 0%; pest or weed control at 125 g/ha [11]: 40%; pest or weed control at 31 g/ha [12]: 0%; pest or weed control at 125 g/ha [12]: 0%; pest or weed control at 31 g/ha [13]: 0%; pest or weed control at 125 g/ha [13]: 0%; pest or weed control at 31 g/ha (Kochia (Kochia scoparia) [14]): 0%; pest or weed control at 125 g/ha (Kochia (Kochia scoparia) [14]): 0%; pest or weed control at 31 g/ha [15]: 0%; pest or weed control at 125 g/ha [15]: 0%; pest or weed control at 250 g/ha [16]: 0%; pest or weed control at 250 g/ha [17]: 0%; pest or weed control at 250 g/ha (rice (Oryra sativa)): 0%; pest or weed control at 250 g/ha [18]: 0%
